Our source for the Ki values is BindingDB's records for doi:10.1021/jm980063g (Research Triangle Institute, 1998).

This assay is described as follows: The compound was tested for antagonist activity by selective inhibition of [35S]GTP-gamma-S, binding in Guinea pig caudate stimulated by […] (Opioid receptor delta 1). On the technique in general: Binding of GTPγS marks nucleotide exchange on a G protein.

A word on the Ki: it is a measure of affinity in units of concentration, obtained from inhibition or displacement.

`C[C@H]1CN(C/C=C/c2ccccc2)CC[C@@]1(C)c1cccc(O)c1` [3-[(3R,4R)-3,4-Dimethyl-1-((E)-3-phenyl-allyl)-piperidin-4-yl]-phenol]: the inhibition constant Ki was determined as 1.5 nM.
In turn, `Cc1ccccc1/C=C/CN1CC[C@@](C)(c2cccc(O)c2)[C@@H](C)C1` [RTI-5989-25] had an inhibitory constant (Ki) of 0.355 nM.
